Like-named read-outs stand apart in the source and are kept apart here.
Key:
cancer cell lines = conditions: ref Nieborowska-Skorska et al., 2019, cited from earlier work
[1] = ref Karpova et a., 2019; cited from earlier work
[2] = ref Karpova et a., 2019; cited from earlier work; remark: listed apart in the source
[3] = target: H4-stimulated PARP1 (human Parp-1) (Homo sapiens, UniProt P09874); assay: Inhibition of H4-stimulated PARP1 activation; type: biochemical; conditions: human Parp-1, NAD+
[4] = Stability in mouse liver microsomes; type: in vitro ADME; conditions: 1 μM, 37 °C
[5] = Stability in human liver microsomes; type: in vitro ADME; conditions: 1 μM, 37 °C
[6] = Maximum kinetic aqueous solubility; conditions: 2% DMSO/phosphate buffer pH 7.4; theoretical maximum 200 μM
[7] = 90 min, pH 7.4
[8] = tested on: Nalm-6 isogenic RAD54−/− human leukemia cells; type: cell-based; conditions: clonogenic assay
[9] = H4/PARP Inhibition IC50, histone H4-coated plates
[10] = read-out: H4/PARP Inhibition IC50, histone H4-coated plates

H4-stimulated PARP1 (human Parp-1), sequence (P09874 whole entry): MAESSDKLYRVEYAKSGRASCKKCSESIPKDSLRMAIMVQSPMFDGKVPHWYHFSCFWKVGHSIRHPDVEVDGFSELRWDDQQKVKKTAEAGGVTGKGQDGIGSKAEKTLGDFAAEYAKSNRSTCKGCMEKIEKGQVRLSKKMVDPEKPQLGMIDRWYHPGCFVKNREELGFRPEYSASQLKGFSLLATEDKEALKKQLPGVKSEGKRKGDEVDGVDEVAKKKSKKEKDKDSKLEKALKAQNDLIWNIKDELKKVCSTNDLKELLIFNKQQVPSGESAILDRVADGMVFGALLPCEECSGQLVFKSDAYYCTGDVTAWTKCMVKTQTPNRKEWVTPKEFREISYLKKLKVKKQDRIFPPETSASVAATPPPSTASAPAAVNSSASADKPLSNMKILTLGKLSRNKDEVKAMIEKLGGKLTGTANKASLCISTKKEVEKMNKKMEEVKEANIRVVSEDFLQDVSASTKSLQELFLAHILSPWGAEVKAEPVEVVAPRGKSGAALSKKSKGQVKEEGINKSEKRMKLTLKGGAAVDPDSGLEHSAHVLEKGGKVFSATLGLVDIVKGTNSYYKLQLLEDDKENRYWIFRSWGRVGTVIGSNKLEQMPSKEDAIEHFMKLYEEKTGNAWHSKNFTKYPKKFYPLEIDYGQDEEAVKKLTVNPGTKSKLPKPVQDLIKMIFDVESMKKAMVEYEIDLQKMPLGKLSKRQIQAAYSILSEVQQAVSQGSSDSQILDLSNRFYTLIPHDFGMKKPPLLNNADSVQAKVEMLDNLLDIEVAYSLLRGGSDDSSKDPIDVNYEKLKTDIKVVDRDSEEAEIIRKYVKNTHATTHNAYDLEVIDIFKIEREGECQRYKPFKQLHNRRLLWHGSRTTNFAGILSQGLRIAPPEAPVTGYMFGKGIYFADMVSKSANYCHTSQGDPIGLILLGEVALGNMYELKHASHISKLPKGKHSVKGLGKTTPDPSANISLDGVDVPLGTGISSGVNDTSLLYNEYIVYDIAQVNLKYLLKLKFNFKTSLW

## C[N+]1(CC(=O)OC2CCCCCCCCCCC2)CCCCC1.[I-] [Compound 1, 1-(2-(Cyclododecyloxy)-2-oxoethyl)-1-methylpiperidin-1-ium iodide]
Cancer cell lines; a number of cell lines
  effect in combination with olaparib (in words): synergistic effect
Cancer cell lines
  potency in in vitro proliferation assays compared with olaparib (in words): more potent than olaparib
[1]
  plasma protein binding (in words): relatively high
[2]
  in vivo half-life (in words): longer than expected
[3]; [9]
  IC50: 104 nM

## C[N+]1(CC(=O)OC2CCCCCCCCCCC2)CCCC1.[I-] [Compound 2]
[4]
  Liver Microsomal Stability (t1/2, min) Mouse + NADPH: 3.8 min
[3]; [10]
  IC50: 52.4 nM
[5]
  Liver Microsomal Stability (t1/2, min) Human + NADPH: < 2 min

## C[N+]1(CC(=O)OC2CCCCCCCCCCC2)CCCCCC1 [Compound 3, 1-(2-(Cyclododecyloxy)-2-oxoethyl)-1-methylazepan-1-ium iodide]
[3]; [9]
  IC50: 54 nM

## CC1(C)CC[N+](C)(CC(=O)OC2CCCCCCCCCCC2)CC1.[I-] [Compound 4, 1-(2-(Cyclododecyloxy)-2-oxoethyl)-1,4,4-trimethylpiperidin-1-ium iodide]
[3]; [9]
  IC50: 45.6 nM
[6]
  Max. Aq. Solubility: 95 µM

## C[N+]1(CC(=O)OC2CCCCCCCCCCC2)CCOCC1.[I-] [Compound 5, 4-(2-(Cyclododecyloxy)-2-oxoethyl)-4-methylmorpholin-4-ium iodide]
[3]; [9]
  IC50: 34.5 nM
[7]
  Max. Aq. Solubility: 200 µM

## C[N+]1(CC(=O)OC2CCCCCCCCCCC2)CCSCC1.[I-] [Compound 6, 4-(2-(Cyclododecyloxy)-2-oxoethyl)-4-methylthiomorphilin-4-ium iodide]
[4]
  Liver Microsomal Stability (t1/2, min) Mouse + NADPH: 4 min
[3]; [10]
  IC50: 156 nM
[5]
  Liver Microsomal Stability (t1/2, min) Human + NADPH: < 2 min

## C[N+]1(CC(=O)OC2CCCCCCCCCCC2)CCNCC1.[I-] [Compound 7, 1-(2-(Cyclododecyloxy)-2-oxoethyl)-1-methylpiperazinium iodide]
[3]; [9]
  IC50: 466 nM
[8]
  anti-clonogenic activity against BRCA-deficient NALM6 leukemia cells (in words): potent anti-clonogenic activity

## CC(C)(C)OC(=O)N1CC[N+](C)(CC(=O)OC2CCCCCCCCCCC2)CC1.[I-] [Compound 8, 4-(tert-Butoxycarbonyl)-1-(2-(cyclodedecyloxy)-2-oxoethyl)-1-methylpiperazin-1-ium iodide]
[4]
  Liver Microsomal Stability (t1/2, min) Mouse + NADPH: 4.1 min
[3]; [10]
  IC50: 55.8 nM
[5]
  Liver Microsomal Stability (t1/2, min) Human + NADPH: < 2 min

## C[N+]1(CC(=O)OC2CCCCCCCCCCC2)CCC(Cc2ccccc2)CC1 (stereo not drawn) [Compound 9, 4-(Benzyl)-1-(2-(cyclododecyloxy)-2-oxoethyl)-1-methylpiperidin-1ium iodide]
[3]; [9]
  IC50: 61.8 nM

## CC[N+]1(CC(=O)OC2CCCCCCCCCCC2)CCCCC1.[I-] [Compound 10, 1-(2-(Cyclododecyloxy)-2-oxoethyl)-1-ethylpiperidin-1-ium iodide]
[3]; [9]
  IC50: 174 nM
[7]
  Max. Aq. Solubility: 200 µM

## CCC[N+]1(CC(=O)OC2CCCCCCCCCCC2)CCCCC1 [Compound 11, 1-(2-(Cyclododecyloxy)-2-oxoethyl)-1-(1-propyl)piperidin-1-ium iodide]
[3]; [9]
  IC50: 142 nM

## CCCC[N+]1(CC(=O)OC2CCCCCCCCCCC2)CCCCC1 [Compound 12, 1-(2-(Cyclododecyloxy)-2-oxoethyl)-1-(1-butyl)piperidin-1-ium iodide]
[3]; [9]
  IC50: 136 nM

## CCCCC[N+]1(CC(=O)OC2CCCCCCCCCCC2)CCCCC1 [Compound 13, 1-(2-(Cyclododecyloxy)-2-oxoethyl)-1-(1-pentyl)piperidin-1-ium iodide]
[3]; [9]
  IC50: 258 nM

## C[N+]1(CC(=O)OC2CCCCCCCCC2)CCCCC1 [Compound 14, 1-(2-(Cyclodecyloxy)-2-oxoethyl)-1-methylpiperidin-1-ium iodide]
[3]; [9]
  IC50: 53.7 nM

## C[N+]1(CC(=O)OC2CCCCCCC2)CCCCC1 [Compound 15, 1-(2-(Cyclooctyloxy)-2-oxoethyl)-1-methylpiperidin-1-ium iodide]
[3]; [9]
  IC50: 80 nM

## C[N+]1(CC(=O)OC2CCCCC2)CCCCC1 [Compound 16, 1-(2-(Cyclohexyloxy)-2-oxoethyl)-1-methylpiperidin-1-ium iodide]
[3]; [9]
  IC50: 77.1 nM

## C[N+]1(CC(=O)OC2CCCC2)CCCCC1.[I-] [Compound 17, 1-(2-(Cyclopentyloxy)-2-oxoethyl)-1-methylpiperidin-1-ium iodide]
[3]; [9]
  IC50: 57.1 nM
[7]
  Max. Aq. Solubility: 200 µM

## CN(C(=O)CO[N+]1(C)CCCCC1)C1CCCCCCCCCCC1 [Compound 18, 1-(2-(Cyclododecyl(methyl)amino)-2-oxoethoxy)-1-methylpiperidin-1ium iodide]
[3]; [10]
  IC50: 191 nM
